{"source": "patent US8859464B2", "about": "“Nitrogen containing isethionic acid salts in field ready spray and tank mixes” (Huntsman Petrochemical L LC, priority 2009, dated 2014)", "test_system": "target weed species", "assay": "Water conditioning efficacy in greenhouse evaluation of isopropylamine glyphosate spray tank solutions in hard water", "format": "in vivo", "conditions": "aqueous spray tank solutions of isopropylamine glyphosate, standard hard water, absence of any surfactant, compared with ammonium sulfate", "experimental": "Isethionic acid (Example 1) and ten neutralization products of isethionic acid (Examples 2-11) were used to treat aqueous spray tank solutions of isopropylamine glyphosate in order to measure the water conditioning efficacy of isethionic acid and the other isethionates. Isethionic acid was neutralized with sodium (Examples 2, 6, and 7), ammonia (Examples 3-5) and tallow amine ethoxylates (Examples 8-11—SURFONIC® T-5 surfactant). These candidates were evaluated against the standard agricultural water conditioner, ammonium sulfate in an aqueous tank mix of isopropylamine glyphosate (Control Example). Specifically, the candidates were tested for their ability to condition water as a function of the suppression of water hardness inhibition of pesticides, such as glyphosate. All evaluations were run in the absence of any surfactant in standard hard water as defined by the World Health Organization standard hard waters. The evaluations were run in greenhouse conditions over a variety of plant species, including determining injury to crop species. The reported data was percent control of target weed species and percent injury to crop species. All evaluations (except for one industry standard) were conducted in the absence of any surfactant."}
{"smiles": "O=S(=O)(O)CCO", "note": "[isethionic acid, Isethionic Acid]", "values": [{"measurement": "water conditioning efficacy (suppression of water hardness inhibition of glyphosate)", "value": "functioned at a level comparable to that of the agricultural industry standard ammonium sulfate"}]}
